Source: ChEMBL document CHEMBL3232733, “Design, synthesis, crystallographic studies, and preliminary biological appraisal of new substituted triazolo[4,3-b]pyridazin-8-amine derivatives as tankyrase inhibitors” (J Med Chem, 2014)
pIC50: −log10 of the molar value. Each block holds one molecule with its values, some of them ahead of it. The source made the active and inactive calls. The rule behind the calls is not given here.

Tests used:
[1] = target: T1, Protein mono-ADP-ribosyltransferase PARP10 (Homo sapiens) (UniProt Q53GL7); settings: 10 uM
T1 sequence (whole entry): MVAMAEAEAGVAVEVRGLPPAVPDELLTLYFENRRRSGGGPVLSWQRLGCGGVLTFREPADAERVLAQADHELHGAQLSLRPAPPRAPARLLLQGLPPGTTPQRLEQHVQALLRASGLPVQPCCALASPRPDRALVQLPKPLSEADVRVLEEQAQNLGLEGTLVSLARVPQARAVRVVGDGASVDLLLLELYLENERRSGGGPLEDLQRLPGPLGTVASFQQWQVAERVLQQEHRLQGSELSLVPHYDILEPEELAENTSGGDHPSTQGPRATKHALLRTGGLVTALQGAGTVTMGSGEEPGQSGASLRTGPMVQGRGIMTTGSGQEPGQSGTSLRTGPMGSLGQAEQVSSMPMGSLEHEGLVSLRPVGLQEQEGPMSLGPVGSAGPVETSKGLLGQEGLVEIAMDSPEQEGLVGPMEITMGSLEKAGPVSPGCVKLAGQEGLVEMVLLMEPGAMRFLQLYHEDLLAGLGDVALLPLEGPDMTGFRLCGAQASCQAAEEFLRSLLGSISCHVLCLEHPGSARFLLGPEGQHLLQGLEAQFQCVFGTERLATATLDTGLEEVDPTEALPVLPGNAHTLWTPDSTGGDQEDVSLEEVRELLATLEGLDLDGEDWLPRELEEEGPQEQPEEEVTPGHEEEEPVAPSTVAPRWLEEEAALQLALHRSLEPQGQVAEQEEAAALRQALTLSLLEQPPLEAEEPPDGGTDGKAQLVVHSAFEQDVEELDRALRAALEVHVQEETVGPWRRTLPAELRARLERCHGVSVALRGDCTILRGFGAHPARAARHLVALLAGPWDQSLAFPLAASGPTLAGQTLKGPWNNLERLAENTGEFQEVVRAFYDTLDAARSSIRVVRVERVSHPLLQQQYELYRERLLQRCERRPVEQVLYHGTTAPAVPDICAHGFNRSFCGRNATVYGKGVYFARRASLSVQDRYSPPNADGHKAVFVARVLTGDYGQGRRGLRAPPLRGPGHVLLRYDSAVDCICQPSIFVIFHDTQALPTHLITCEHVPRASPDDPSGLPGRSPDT
Description: Inhibition of recombinant human PARP-10 at 10 uM relative to control

[2] = target: Poly [ADP-ribose] polymerase 2 (Homo sapiens, UniProt Q9UGN5); experiment: Inhibition of recombinant human PARP-2
[3] = target: T2, Protein mono-ADP-ribosyltransferase TIPARP (Homo sapiens) (UniProt Q7Z3E1); settings: 10 uM
T2 sequence (whole entry): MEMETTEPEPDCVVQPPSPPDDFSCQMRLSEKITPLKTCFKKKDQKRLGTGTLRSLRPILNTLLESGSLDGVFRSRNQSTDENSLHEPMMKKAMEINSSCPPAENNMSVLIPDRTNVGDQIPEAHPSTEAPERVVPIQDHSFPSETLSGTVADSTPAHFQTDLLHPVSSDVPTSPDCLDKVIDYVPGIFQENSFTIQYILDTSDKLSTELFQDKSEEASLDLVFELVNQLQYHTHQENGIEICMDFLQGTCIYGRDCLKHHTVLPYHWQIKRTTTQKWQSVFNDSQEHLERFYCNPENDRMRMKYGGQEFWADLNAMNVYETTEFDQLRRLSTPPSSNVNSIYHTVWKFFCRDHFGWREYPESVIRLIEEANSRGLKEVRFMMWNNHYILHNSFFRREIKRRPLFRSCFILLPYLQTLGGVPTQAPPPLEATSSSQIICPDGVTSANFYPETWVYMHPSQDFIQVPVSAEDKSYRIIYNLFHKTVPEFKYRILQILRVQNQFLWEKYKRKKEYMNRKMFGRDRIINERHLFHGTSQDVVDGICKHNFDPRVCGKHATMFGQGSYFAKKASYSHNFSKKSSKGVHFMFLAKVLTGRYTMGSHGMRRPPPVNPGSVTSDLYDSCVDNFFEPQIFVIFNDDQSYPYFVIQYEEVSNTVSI
Description: Inhibition of recombinant human PARP-7 at 10 uM relative to control

[4] = target: Protein mono-ADP-ribosyltransferase PARP6 (Homo sapiens) (UniProt Q2NL67); settings: 10 uM
Description: Inhibition of recombinant human PARP-6 at 10 uM relative to control

[5] = target: T3, Protein mono-ADP-ribosyltransferase PARP3 (Homo sapiens) (UniProt Q9Y6F1); settings: 10 uM
T3 sequence (whole entry): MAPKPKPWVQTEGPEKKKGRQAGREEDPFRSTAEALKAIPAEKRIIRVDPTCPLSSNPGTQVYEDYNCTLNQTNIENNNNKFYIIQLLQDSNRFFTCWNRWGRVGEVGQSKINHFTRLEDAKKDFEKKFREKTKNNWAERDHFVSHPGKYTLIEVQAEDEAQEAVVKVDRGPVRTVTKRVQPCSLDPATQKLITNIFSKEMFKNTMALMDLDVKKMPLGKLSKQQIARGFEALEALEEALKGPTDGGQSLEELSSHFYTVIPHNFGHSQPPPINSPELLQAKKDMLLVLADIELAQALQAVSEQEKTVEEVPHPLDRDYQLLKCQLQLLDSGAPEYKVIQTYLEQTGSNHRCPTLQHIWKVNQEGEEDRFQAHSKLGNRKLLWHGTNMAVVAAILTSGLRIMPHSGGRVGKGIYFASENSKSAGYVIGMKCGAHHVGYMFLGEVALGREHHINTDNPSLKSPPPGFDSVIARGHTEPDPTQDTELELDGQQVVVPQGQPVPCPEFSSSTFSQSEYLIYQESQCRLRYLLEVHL
Description: Inhibition of recombinant human PARP-3 at 10 uM relative to control

[6] = target: Poly [ADP-ribose] polymerase 1 (Homo sapiens, UniProt P09874); experiment: Inhibition of recombinant human PARP-1
DLD-1 = experiment: Cytotoxicity against human DLD1 cells assessed as growth inhibition at 1 to 20 uM measured on day 10 by crystal violet staining; format: functional, cell-based
[7] = target: T4, Protein mono-ADP-ribosyltransferase PARP8 (Homo sapiens) (UniProt Q8N3A8); settings: 10 uM
T4 sequence (whole entry): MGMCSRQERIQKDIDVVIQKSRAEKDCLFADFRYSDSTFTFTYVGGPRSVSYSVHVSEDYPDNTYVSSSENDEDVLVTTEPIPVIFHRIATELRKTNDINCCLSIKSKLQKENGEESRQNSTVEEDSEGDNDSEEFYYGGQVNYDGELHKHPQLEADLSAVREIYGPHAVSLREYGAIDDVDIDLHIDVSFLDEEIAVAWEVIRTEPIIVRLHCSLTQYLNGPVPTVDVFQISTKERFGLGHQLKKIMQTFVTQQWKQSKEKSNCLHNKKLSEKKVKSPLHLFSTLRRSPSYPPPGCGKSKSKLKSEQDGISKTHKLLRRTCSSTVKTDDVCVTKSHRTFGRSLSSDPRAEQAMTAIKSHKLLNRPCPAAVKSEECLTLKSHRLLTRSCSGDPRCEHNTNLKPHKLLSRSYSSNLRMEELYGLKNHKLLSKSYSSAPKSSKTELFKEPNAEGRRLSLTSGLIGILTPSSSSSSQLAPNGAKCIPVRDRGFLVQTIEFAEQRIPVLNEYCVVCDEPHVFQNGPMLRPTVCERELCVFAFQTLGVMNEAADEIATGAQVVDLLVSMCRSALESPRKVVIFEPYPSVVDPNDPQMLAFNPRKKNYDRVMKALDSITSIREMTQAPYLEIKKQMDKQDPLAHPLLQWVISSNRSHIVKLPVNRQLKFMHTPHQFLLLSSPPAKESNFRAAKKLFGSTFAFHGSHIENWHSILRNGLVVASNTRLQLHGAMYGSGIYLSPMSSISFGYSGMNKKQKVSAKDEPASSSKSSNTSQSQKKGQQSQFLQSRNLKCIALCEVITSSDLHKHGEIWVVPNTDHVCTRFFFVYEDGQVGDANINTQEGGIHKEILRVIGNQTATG
Description: Inhibition of recombinant human PARP-8 at 10 uM relative to control

Chain of Poly [ADP-ribose] polymerase 1 (P09874 whole entry): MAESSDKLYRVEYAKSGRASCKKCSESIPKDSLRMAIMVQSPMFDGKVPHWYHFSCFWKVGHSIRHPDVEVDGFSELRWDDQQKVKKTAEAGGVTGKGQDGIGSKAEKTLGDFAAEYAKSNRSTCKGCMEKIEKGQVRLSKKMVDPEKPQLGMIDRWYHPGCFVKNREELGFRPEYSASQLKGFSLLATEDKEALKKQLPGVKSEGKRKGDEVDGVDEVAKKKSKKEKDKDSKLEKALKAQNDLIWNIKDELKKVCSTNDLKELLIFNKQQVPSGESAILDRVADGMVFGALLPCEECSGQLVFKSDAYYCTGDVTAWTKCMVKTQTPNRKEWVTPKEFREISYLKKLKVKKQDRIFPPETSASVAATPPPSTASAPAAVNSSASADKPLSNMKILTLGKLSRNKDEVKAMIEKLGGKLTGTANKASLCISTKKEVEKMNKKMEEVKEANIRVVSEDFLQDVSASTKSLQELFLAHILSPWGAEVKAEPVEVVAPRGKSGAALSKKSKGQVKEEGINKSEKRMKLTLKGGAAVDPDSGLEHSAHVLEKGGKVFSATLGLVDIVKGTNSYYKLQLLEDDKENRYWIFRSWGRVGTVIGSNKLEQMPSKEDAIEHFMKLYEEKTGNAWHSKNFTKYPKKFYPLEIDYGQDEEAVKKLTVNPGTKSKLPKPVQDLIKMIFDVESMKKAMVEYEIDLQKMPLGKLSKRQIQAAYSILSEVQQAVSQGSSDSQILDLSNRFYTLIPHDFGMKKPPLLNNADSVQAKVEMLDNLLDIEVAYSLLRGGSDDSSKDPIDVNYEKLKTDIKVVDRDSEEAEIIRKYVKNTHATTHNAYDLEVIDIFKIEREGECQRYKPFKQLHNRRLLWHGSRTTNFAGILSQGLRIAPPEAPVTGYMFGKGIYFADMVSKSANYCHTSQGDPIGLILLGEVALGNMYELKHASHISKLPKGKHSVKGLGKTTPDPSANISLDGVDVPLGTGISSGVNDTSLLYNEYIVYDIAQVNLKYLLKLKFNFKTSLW
Chain of Protein mono-ADP-ribosyltransferase PARP6 (Homo sapiens) (Q2NL67 whole entry): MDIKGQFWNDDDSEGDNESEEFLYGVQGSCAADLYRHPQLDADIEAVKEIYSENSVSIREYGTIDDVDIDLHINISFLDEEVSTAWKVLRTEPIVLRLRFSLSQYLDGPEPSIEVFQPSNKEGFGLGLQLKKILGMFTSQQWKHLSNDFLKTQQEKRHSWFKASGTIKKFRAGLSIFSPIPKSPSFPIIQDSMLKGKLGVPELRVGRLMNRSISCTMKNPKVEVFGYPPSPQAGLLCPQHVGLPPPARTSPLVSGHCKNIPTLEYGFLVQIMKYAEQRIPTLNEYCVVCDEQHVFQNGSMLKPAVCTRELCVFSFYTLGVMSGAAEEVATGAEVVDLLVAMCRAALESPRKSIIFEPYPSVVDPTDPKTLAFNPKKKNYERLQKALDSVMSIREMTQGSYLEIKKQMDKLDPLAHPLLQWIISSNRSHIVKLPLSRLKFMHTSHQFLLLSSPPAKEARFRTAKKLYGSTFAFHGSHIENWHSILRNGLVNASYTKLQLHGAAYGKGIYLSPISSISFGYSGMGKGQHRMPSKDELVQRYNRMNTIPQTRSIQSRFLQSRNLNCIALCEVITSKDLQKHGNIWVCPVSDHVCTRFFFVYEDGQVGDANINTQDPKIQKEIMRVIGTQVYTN
Chain of Poly [ADP-ribose] polymerase 2 (Q9UGN5 whole entry): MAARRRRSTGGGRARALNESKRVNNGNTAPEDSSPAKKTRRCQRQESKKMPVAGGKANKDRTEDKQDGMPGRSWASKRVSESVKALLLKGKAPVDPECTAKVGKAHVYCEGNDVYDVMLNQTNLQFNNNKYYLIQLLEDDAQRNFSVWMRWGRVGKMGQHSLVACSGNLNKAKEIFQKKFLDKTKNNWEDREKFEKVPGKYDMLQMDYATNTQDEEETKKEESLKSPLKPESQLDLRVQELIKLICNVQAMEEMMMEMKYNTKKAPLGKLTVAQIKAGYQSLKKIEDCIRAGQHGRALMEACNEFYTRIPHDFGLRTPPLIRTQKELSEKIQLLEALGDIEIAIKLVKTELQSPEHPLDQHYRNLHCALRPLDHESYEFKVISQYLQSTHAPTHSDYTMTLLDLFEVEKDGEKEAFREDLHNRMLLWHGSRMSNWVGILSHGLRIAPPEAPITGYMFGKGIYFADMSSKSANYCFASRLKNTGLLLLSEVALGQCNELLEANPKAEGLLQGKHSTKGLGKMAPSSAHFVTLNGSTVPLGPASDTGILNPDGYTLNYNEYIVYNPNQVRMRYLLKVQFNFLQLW

- inhibition [1]: > 70%
SMILES: O=C(c1cc(Cc2n[nH]c(=O)c3ccccc23)ccc1F)N1CCN(C(=O)C2CC2)CC1

- pIC50 [2]: < 5.00
- inhibition [3]: inactive
- inhibition [4]: inactive
- inhibition [5]: inactive
- pIC50 [6]: < 5.00
- inhibition [7]: inactive
- inhibition [1]: inactive
SMILES: Cc1cc(NCCc2ccc(O)cc2)c2nncn2n1
- growth inhibition (GI) (DLD-1): Active

SMILES: Oc1nc(-c2ccc(C(F)(F)F)cc2)nc2c1CSCC2
- growth inhibition (GI) (DLD-1): Active

SMILES: O=C(Nc1cccc2cccnc12)c1ccc(N2C(=O)[C@@H]3[C@H](C2=O)[C@@H]2C=C[C@H]3C2)cc1
- growth inhibition (GI) (DLD-1): Active
